Reference: patent US20240239794A1, “PKC-Theta Modulators” (Exscientia AI Limited, priority 2021, published 2024)
Where two headings read alike, the source gives them in different places.

Experiments:
[1] = target: Recombinant human PKC-theta (His-tagged 362-706) (Homo sapiens (Human), UniProt Q04759); experiment: PKC-theta inhibition assay (HTRF KinEASE kit); assay type: biochemical; conditions: ATP 6.5 μM
Experimental: (§1) PKC-theta and PKC-delta biochemical activities were measured using the PKC-theta HTRF KinEASEkit kit, according to manufacturer's instructions (Cisbio, catalogue number 61ST1PEJ). Briefly, the kinase buffer component of the kit was supplemented with 10 mM MgCl2, 1 mM DTT and 0.1% Tween 20. For the PKC-theta assay, STK substrate and ATP were added to provide a final assay concentration of 525 nM and 6.5 μM, respectively. For the PKC-delta assay, STK substrate and ATP were added to provide a final assay concentration of 243 nM and 5.7 μM, respectively. The streptavidin_XL665 and STK antibody-cryptate detection reagents were mixed according to the manufacturer's instructions. Test compounds were diluted in DMSO in a series of 10 semi-log step doses; 10 nL of each compound dose were dispensed in 384 well plates. Recombinant human PKC-theta (His-tagged 362-706) or PKC-delta (His-tagged 345-676) was diluted into kinase buffer to provide a final assay concentration of 10 ng/ml and added to the test compound for 30 minutes on ice. The reaction was started by addition of the substrate and ATP and incubated at 25° C. for 30 minutes or 20 minutes for the PKC-theta and PKC-delta assays, respectively. The detection reagents were added, and the plate was incubated in the dark for 2 hours. Fluorescence was measured on an Envision 2103 plate reader with optical setup for […] in the HTRF mode. The ratio of acceptor and donor emission signals was calculated for each well. Percent inhibition values were calculated from the HTRF ratios at different doses and fitted to a 4-parameter logistic curve to determine IC50 values (see Table 1).

[2] = test system: IL-2 secretion by human effector memory T cells (TEM); experiment: Effector memory T cells IL-2 release assay; assay type: cell-based; conditions: T-cell, human CD4+ TEM cells, CD3/CD28 bead stimulation, 24 h
Experimental: Test compound-mediated inhibition of NFκB signalling in T cells was assessed by quantification of the IL-2 secretion by human effector memory T cells (TEM) upon treatment and stimulation. Human TEM cells were isolated from buffy coats of healthy donors obtained from the French blood bank. First, peripheral blood mononuclear cells (PBMC) were purified from buffy coats diluted 1:1 with DPBS (Gibco, cat #14190-094) by Pancoll (PAN BIOTECH, cat #P04-60500) density gradient centrifugation at 400×g for 20 minutes. TEM cells were further enriched by negative immuno-magnetic cell sorting using a human CD4+ Effector Memory T Cell Isolation Kit (Miltenyi, cat #130-094-125) according to the manufacturer's instructions. Aliquots of 3×10E6 purified TEM cells were kept frozen in Cryo-SFM medium (PromoCell, cat #C-29912) in gas phase nitrogen until used. Cell purity was verified by flow cytometry analysis of 200 000 PFA-fixed cells previously labelled with monoclonal antibodies anti-CD4-PerCP-Cy5.5 (BD Pharmigen, cat #332772), anti-CD8-V500 (BD Biosciences, cat #561617), anti-CD14-Pacific Blue (Biolegend, cat #325616), anti-CD45 RA-FITC (Biolegend, cat #304106) and anti-CCR7-APC (in CD4+ Effector Memory T Cell Isolation Kit, Miltenyi, cat #130-094-125).
TEM cells were resuspended in complete RPMI medium composed of: RPMI 1640 (Gibco, cat #31870-025), 10% heat inactivated fetal bovine serum (Sigma, cat #F7524), 2 mM GlutaMAX (Gibco, cat #35050-038), 1 mM sodium pyruvate 100× (Gibco, cat #11360-039), 1% MEM non-essential amino acids solution (Gibco, cat #11140-035) and 100 U/mL penicillin, 100 µg/mL streptomycin (Sigma-Aldrich, cat #11074440001). 5,000 cells per well were plated onto flat clear bottom 384 well plates (Corning, cat #3770). 5,000 Dynabeads Human T-Activator CD3/CD28 (Gibco, cat #11132D) were added to each well for cell stimulation. Finally, 10 doses of test compound, originally prepared in DMSO by serial semi-log step dilution, were also added to cells in triplicate wells. Final DMSO concentration in wells was 0.1% in a total volume of 100 µL complete medium. Plates were incubated for 24 h at 37° C. in 5% CO2 atmosphere. After incubation, cell suspensions were centrifuged at 400×g and culture supernatants were recovered and stored at −80° C. Cell viability was assessed by flow cytometry after staining the cells with Fixable Viability Dye eFluor 780 (Invitrogen, cat #65-0865-14). IL-2 levels were determined in cell supernatants using an HTRF human IL-2 detection kit (Cisbio, cat #62HIL02PEH). IL-2 data at the different compound doses were fitted to a 4-parameter logistic curve to determine IC50 values, corresponding to the compound concentration leading to 50% reduction of the maximal IL-2 levels observed in each experiment. Viability data were analysed similarly to exclude cytotoxicity as a cause of IL-2 decrease (see Table 1).

[3] = target: Recombinant human PKC-delta (His-tagged 345-676) (Homo sapiens (Human), UniProt Q05655); experiment: PKC-delta inhibition assay (HTRF KinEASE kit), PKC-theta/PKC-delta selectivity; assay type: biochemical; conditions: ratio; for PKC-theta/PKC-delta selectivity: PKC-theta over PKC-delta, HTRF assays; for PKC-theta/PKC-delta selectivity (binned): binned A to G
Experimental: as §1

[4] = binned A to H, read-out: PKC-theta HTRF pIC50 (binned) (converted)
[5] = binned A to G, read-out: PKC-theta IL2 pIC50 (binned) (converted)
[6] = read-out: PKC-theta IL2 pIC50 (converted)
[7] = read-out: PKC-theta HTRF pIC50 (converted)

Sequence of Recombinant human PKC-delta (His-tagged 345-676) (Q05655 345-676): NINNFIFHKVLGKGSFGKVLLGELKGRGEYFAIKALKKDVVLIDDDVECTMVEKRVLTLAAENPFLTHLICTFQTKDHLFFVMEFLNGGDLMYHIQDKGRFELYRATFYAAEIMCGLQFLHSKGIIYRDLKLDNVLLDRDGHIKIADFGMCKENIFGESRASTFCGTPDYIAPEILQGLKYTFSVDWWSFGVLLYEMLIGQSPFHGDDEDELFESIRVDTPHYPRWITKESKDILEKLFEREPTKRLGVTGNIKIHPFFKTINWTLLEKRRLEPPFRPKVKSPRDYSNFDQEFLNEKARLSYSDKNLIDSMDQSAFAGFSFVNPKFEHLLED
Sequence of Recombinant human PKC-theta (His-tagged 362-706) (Q04759 362-706): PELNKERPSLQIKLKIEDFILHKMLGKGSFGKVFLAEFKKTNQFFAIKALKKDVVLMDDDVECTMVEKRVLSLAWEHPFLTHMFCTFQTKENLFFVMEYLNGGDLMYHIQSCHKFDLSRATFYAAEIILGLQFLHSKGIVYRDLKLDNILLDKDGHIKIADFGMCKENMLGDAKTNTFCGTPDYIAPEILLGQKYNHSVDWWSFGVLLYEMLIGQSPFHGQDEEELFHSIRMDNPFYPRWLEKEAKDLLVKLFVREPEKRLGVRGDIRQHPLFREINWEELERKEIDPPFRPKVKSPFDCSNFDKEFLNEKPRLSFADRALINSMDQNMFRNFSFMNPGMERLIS

Structure (SMILES)	PKC-theta HTRF pIC50 [1]	IC50 [1, 4]	IC50 [2, 5]	IC50 [2, 6]	PKC-theta/PKC-delta selectivity [3]	PKC-theta/PKC-delta selectivity (binned) [3]	IC50 [1, 7]
CC1(C)C(=O)Nc2nccc(-c3nn([C@H]4CCNC[C@@H]4F)c4ccccc34)c21 (racemic) [Example 36]	8.3	3.16 to 10 nM	100 to 316 nM	126 nM	14	D (D means a ratio of between 10 and 20)	
C[C@@]1(O)C(=O)Nc2nccc(-c3nn(C4CCNCC4)c4ccccc34)c21 (single isomer, unassigned) [Example 27]		31.6 to 100 nM	> 1000 nM	1580 nM	5	E (E means a ratio of between 5 and 10)	50.1 nM
C[C@]1(O)C(=O)Nc2nccc(-c3nn(C4CCNCC4)c4ccccc34)c21 (single isomer, unassigned) [Example 28]		1 to 3.16 nM	10 to 31.6 nM	31.6 nM	15	D (D means a ratio of between 10 and 20)	2 nM
C[C@@]1(O)C(=O)Nc2nccc(-c3nn(CC4CCNCC4)c4ccccc34)c21 (single isomer, unassigned) [Example 29]		≤ 1 nM	31.6 to 100 nM	39.8 nM	24	C (C means a ratio of between 20 and 30)	0.398 nM
CC1(C)C(=O)Nc2nccc(-c3nn(C[C@@]4(C)COCCN4)c4ccccc34)c21 (single isomer, unassigned) [Example 31]	8.9	1 to 3.16 nM	31.6 to 100 nM	39.8 nM	22	C (C means a ratio of between 20 and 30)	
C[C@@]1(O)C(=O)Nc2nccc(-c3nn(C4(CC#N)CCC4)c4ccccc34)c21 (single isomer, unassigned) [Example 40]		≤ 1 nM	10 to 31.6 nM	15.8 nM	17	D (D means a ratio of between 10 and 20)	0.2 nM
C[C@@]1(O)C(=O)Nc2nccc(-c3nn(C4CCNCC4)c4cc(C(F)(F)F)ccc34)c21 (single isomer, unassigned) [Example 42]		10 to 31.6 nM	316 to 1000 nM	398 nM			25.1 nM
C[C@@]1(O)C(=O)Nc2nccc(-c3nn(C4CCNCC4)c4c(OC(F)F)cccc34)c21 (single isomer, unassigned) [Example 43]		3.16 to 10 nM	316 to 1000 nM	316 nM	11	D (D means a ratio of between 10 and 20)	7.94 nM
C[C@@]1(O)C(=O)Nc2nccc(-c3nn(CC4(F)CCNCC4)c4ccccc34)c21 (single isomer, unassigned) [Example 47]		≤ 1 nM	10 to 31.6 nM	25.1 nM	12	D (D means a ratio of between 10 and 20)	0.631 nM
C[C@@]1(O)C(=O)Nc2nccc(-c3nn(C4(CC#N)COC4)c4ccccc34)c21 (single isomer, unassigned) [Example 48]		100 to 316 nM	316 to 1000 nM	794 nM	33	B (B means a ratio of between 30 and 50)	316 nM
C[C@@]1(O)C(=O)Nc2nccc(-c3nn(C4(CC#N)CNC4)c4ccccc34)c21 (single isomer, unassigned) [Example 49]		3.16 to 10 nM	100 to 316 nM	316 nM	3	F (F means a ratio of between 1 and 5)	6.31 nM
C[C@@]1(O)C(=O)Nc2nccc(-c3nn([C@@H]4CCNC[C@@H]4F)c4ccccc34)c21 (single isomer, unassigned) [Example 50]		≤ 1 nM	10 to 31.6 nM	20 nM	11	D (D means a ratio of between 10 and 20)	0.794 nM
C[C@@]1(O)C(=O)Nc2nccc(-c3nn(C4(CC#N)CCC4)c4c(F)cccc34)c21 (single isomer, unassigned) [Example 58]		≤ 1 nM	10 to 31.6 nM	10 nM	18	D (D means a ratio of between 10 and 20)	0.501 nM
C[C@@]1(O)C(=O)Nc2nccc(-c3nn(C4(CC#N)CCC4)c4cc(F)ccc34)c21 (single isomer, unassigned) [Example 59]		≤ 1 nM	10 to 31.6 nM	20 nM	11	D (D means a ratio of between 10 and 20)	0.631 nM
C[C@@]1(O)C(=O)Nc2nccc(-c3nn(C4(CC#N)CCC4)c4ncccc34)c21 (single isomer, unassigned) [Example 60]		3.16 to 10 nM	100 to 316 nM	100 nM	8	E (E means a ratio of between 5 and 10)	3.98 nM
C[C@]1(O)C(=O)Nc2nccc(-c3nn(C4(CC#N)CCC4)c4cc(C(F)(F)F)ccc34)c21 (single isomer, unassigned) [Example 64]		1 to 3.16 nM	31.6 to 100 nM	79.4 nM	28	C (C means a ratio of between 20 and 30)	2.51 nM
CC[C@]1(C)C(=O)Nc2nccc(-c3nn([C@H]4CCNC4)c4ccccc34)c21 (single isomer, unassigned) [Example 65]		31.6 to 100 nM	316 to 1000 nM	398 nM	28	C (C means a ratio of between 20 and 30)	50.1 nM
CC[C@]1(C)C(=O)Nc2nccc(-c3nn([C@H]4CCNC[C@H]4F)c4cc(F)ccc34)c21 (single isomer, unassigned) [Example 102]		3.16 to 10 nM			46	B (B means a ratio of between 30 and 50)	6.31 nM
CC1(O)C(=O)Nc2nccc(-c3cn([C@@H]4CCNC4)c4ccccc34)c21 (stereo partly shown) [Example 17]					7	E (E means a ratio of between 5 and 10)	
